Reference: US7897602B2, “Indolinone compounds as kinase inhibitors” (Development Center for Biotechnology, priority 2009, dated 2011)
Counter-ions that a name gives are not always drawn.

Columns and labels:
Type in all cases: biochemical
[1] = target: T1, c-Met kinase (Homo sapiens, UniProt P08581); experiment: c-Met kinase assay (33P incorporation into Poly(Glu-Tyr)); conditions: 500 nM test compound
T1 construct: recombinant N-terminal 6×His-tagged c-Met kinase domain construct expressed from baculovirus; 6xHis (N); made in house
Outline: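 Recombinant N-terminal 6×His-tagged c-Met kinase domain (baculovirus-expressed, 5 ng) acted on Poly(Glu-Tyr) 4:1 with 100 μM ATP plus [33P]-γ-ATP in MOPS pH 7.0 buffer, 30 min at 30° C. Compound was at 500 nM. Filter-retained radioactivity was compared with the DMSO control to give percent inhibition.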

[2] = target: T2, Aurora B kinase (Homo sapiens, UniProt Q96GD4); experiment: Aurora B kinase assay ([γ-33P]ATP, CHOCKtide substrate); conditions: for inhibition at 1 µM: 1.0 μM test compound
T2 construct: purchased Cell signaling
Outline: (§1)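 Recombinant Aurora A (1 ng) or Aurora B (2.5 ng) incubated with test compound, CHOCKtide (1 μg) and [γ-33P]ATP/ATP at 10 μM (Aurora A) or 40 μM (Aurora B), 30 min at 33 °C. Stopped with phosphoric acid; filter-bound 33P counted; IC50 = half-maximal inhibition.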

[3] = target: T3, Aurora A kinase (Homo sapiens, UniProt O14965); experiment: Aurora A kinase assay ([γ-33P]ATP, CHOCKtide substrate); conditions: for inhibition at 1 µM: 1.0 μM test compound
T3 construct: purchased Upstate
T3 sequence (O14965 1-403): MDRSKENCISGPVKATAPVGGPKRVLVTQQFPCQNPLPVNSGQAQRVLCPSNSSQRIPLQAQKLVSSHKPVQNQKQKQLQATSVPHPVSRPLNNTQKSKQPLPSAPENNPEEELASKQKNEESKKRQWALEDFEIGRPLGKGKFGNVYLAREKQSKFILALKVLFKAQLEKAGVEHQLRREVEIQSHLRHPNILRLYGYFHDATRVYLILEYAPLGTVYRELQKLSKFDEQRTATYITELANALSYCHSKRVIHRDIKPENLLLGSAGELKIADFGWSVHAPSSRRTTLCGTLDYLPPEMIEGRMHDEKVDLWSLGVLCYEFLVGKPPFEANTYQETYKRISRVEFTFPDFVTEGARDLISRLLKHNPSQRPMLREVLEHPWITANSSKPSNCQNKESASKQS
Outline: as §1

[4] = target: T4, VEGFR2 kinase (Homo sapiens, UniProt P35968); experiment: VEGFR2 kinase assay (33P incorporation into Poly(Glu-Tyr)); conditions: 500 nM test compound; read-out: Inhibition at 500 nM (%) VEGFr-2
T4 construct: recombinant N-terminal 6×His-tagged VEGFR2 kinase domain construct expressed by baculovirus; 6xHis (N); made in house
Outline: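 Recombinant baculovirus-expressed N-terminal His6-tagged VEGFR2 kinase domain (6.25 ng) phosphorylated poly(Glu-Tyr) 4:1 with 100 μM ATP plus [33P]-γ-ATP in MOPS pH 7.0, 30 °C, 30 min. Test compound was at 500 nM (4% DMSO). Filter-retained radioactivity relative to DMSO control gave % inhibition.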

T2 sequence (Q96GD4 whole entry): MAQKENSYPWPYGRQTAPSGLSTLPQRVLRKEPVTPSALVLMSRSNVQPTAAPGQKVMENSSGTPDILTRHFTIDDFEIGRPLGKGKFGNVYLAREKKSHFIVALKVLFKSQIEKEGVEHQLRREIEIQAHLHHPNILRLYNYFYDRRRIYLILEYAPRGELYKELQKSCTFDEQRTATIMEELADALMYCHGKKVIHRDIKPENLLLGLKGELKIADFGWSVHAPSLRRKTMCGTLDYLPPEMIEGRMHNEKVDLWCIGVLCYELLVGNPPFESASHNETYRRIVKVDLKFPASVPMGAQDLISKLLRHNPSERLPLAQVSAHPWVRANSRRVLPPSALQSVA
T4 sequence (P35968 834-1162 limits assumed): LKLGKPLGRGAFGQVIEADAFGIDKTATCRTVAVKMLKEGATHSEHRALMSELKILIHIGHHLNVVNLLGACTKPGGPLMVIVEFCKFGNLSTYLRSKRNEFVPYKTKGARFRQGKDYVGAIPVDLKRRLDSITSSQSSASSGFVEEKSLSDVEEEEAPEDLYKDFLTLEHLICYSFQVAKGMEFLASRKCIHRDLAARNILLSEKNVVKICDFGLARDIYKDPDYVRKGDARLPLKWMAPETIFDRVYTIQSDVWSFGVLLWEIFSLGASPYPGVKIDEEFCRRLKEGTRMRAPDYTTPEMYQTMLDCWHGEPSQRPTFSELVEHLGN
T1 sequence (P08581 1078-1345 limits assumed): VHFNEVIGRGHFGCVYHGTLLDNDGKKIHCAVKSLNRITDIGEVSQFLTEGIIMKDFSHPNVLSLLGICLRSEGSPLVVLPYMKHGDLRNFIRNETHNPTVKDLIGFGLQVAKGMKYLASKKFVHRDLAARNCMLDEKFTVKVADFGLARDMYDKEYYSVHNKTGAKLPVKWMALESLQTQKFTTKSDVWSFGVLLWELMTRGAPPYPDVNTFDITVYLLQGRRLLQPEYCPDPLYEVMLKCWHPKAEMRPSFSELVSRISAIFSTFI

SMILES	inhibition at 0.5 µM [1]	IC50 [2]	inhibition at 1 µM [2]	IC50 [3]	inhibition at 1 µM [3]	inhibition at 0.5 µM [4]
O=C(O)CCc1c(/C=C2\C(=O)Nc3ccc(NS(=O)(=O)c4ccccc4)cc32)[nH]c2c1C(=O)CCC2 [DCB-70103, (Z)-5-phenylsulfonamido-3-((3-carboxyethyl-4-oxo-4,5,6,7-tetrahydro-1H-indol-2-yl)methylene)indolin-2-one]	37.9%	156 nM	80.1%	12.3 nM	98.9%	88.3%
CC(=O)Nc1ccc2c(c1)/C(=C/c1[nH]c3c(c1CCC(=O)O)C(=O)CCC3)C(=O)N2 [DCB-70104, (Z)-5-acetamido-3-((3-carboxyethyl-4-oxo-4,5,6,7-tetrahydro-1H-indol-2-yl)methylene)indolin-2-one]	19.7%		12.8%	252 nM	83.6%	73.8%
O=C(O)CCc1c(/C=C2\C(=O)Nc3ccc(-c4ccc(F)cc4)cc32)[nH]c2c1C(=O)CCC2 [DCB-70109, (Z)-5-(4-fluorophenyl)-3-((3-carboxyethyl-4-oxo-4,5,6,7-tetrahydro-1H-indol-2-yl)methylene)indolin-2-one]	-10.8%		1.8%		69.1%	58.6%
O=C(O)CCc1c(/C=C2\C(=O)Nc3ccc(S(=O)(=O)N4CCCCC4)cc32)[nH]c2c1C(=O)CCC2 [DCB-70114, (Z)-5-(piperidin-1-ylsulfonyl)-3-((3-carboxyethyl-4-oxo-4,5,6,7-tetrahydro-1H-indol-2-yl)methylene)indolin-2-one]	3.5%	494 nM	60.7%	14 nM	99.9%	22.6%
C=CS(=O)(=O)c1ccc2c(c1)/C(=C/c1[nH]c3c(c1CCC(=O)O)C(=O)CCC3)C(=O)N2 [DCB-70115, (Z)-5-vinylsulfonyl-3-((3-carboxyethyl-4-oxo-4,5,6,7-tetrahydro-1H-indol-2-yl)methylene)indolin-2-one]	22.3%		32.5%		99.4%	52.2%
CCS(=O)(=O)c1ccc2c(c1)/C(=C/c1[nH]c3c(c1CCC(=O)O)C(=O)CCC3)C(=O)N2 [DCB-70116, (Z)-5-ethylsulfonyl-3-((3-carboxyethyl-4-oxo-4,5,6,7-tetrahydro-1H-indol-2-yl)methylene)indolin-2-one]	38.1%		7%		100%	47.9%
CNS(=O)(=O)c1ccc2c(c1)/C(=C/c1[nH]c3c(c1CCC(=O)N1CCN(C)CC1)C(=O)CCC3)C(=O)N2 [DCB-70117]	41.4%		5.3%		34.9%	43.3%
CCOC(=O)CCc1c(/C=C2\C(=O)Nc3ccc(NS(=O)(=O)CC)cc32)[nH]c2c1C(=O)CCC2 [DCB-70118, (Z)-5-ethylsulfonamido-3-((3-(3-ethoxy-3-oxopropyl)-4-oxo-4,5,6,7-tetrahydro-1H-indol-2-yl)methylene)indolin-2-one]	50.9%		3.2%		81.2%	51.9%
CN1CCN(C(=O)CCc2c(/C=C3\C(=O)Nc4ccc(S(=O)(=O)N5CCCC5)cc43)[nH]c3c2C(=O)CCC3)CC1 [DCB-70120, (Z)-3-((3-(3-(4-methylpiperazin-l-yl)-3-oxopropyl)-4-oxo-4,5,6,7-tetrahydro-1H-indol-2-yl)methylene)-5-(pyrrolidin-1-ylsulfonyl)indolin-2-one]	10%		21.5%		50.5%	17.6%

More lines, now with the values ahead:

inhibition at 0.5 µM [1]	IC50 [2]	inhibition at 1 µM [2]	IC50 [3]	inhibition at 1 µM [3]	inhibition at 0.5 µM [4]	SMILES
59.6%	292 nM	70.6%	8.1 nM	99%	46.4%	O=C(O)CCc1c(/C=C2\C(=O)Nc3ccc(S(=O)(=O)N4CCc5ccccc54)cc32)[nH]c2c1C(=O)CCC2 [DCB-70106, (Z)-5-(indolin-1-ylsulfonyl)-3-((3-carboxyethyl-4-oxo-4,5,6,7-tetrahydro-1H-indol-2-yl)methylene)indolin-2-one]
59.6%		23.7%		36%	48.8%	CN1CCN(S(=O)(=O)c2ccc3c(c2)/C(=C/c2[nH]c4c(c2CCC(=O)O)C(=O)CCC4)C(=O)N3)CC1 [DCB-70107, (Z)-5-(4-methylpiperazin-1-ylsunfonyl)-3-((3-carboxyethyl-4-oxo-4,5,6,7-tetrahydro-1H-indol-2-yl)methylene)indolin-2-one hydrochloride]
30.1%		6.8%		7.5%	14.1%	CCOC(=O)CCc1c(/C=C2\C(=O)Nc3ccc(-c4ccc(F)cc4)cc32)[nH]c2c1C(=O)CCC2 [DCB-70108, (Z)-5-(4-fluorophenyl)-3-((3-(3-ethoxy-3-oxopropyl)-4-oxo-4,5,6,7-tetrahydro-1H-indol-2-yl)methylene)indolin-2-one]
31.8%		7.3%		95.4%	33.9%	CCS(=O)(=O)Nc1ccc2c(c1)/C(=C/c1[nH]c3c(c1CCC(=O)O)C(=O)CCC3)C(=O)N2 [DCB-70119, (Z)-5-ethylsulfonamido-3-((3-carboxyethyl-4-oxo-4,5,6,7-tetrahydro-1H-indol-2-yl)methylene)indolin-2-one]
-6.7%	1720 nM	46.5%		97.9%	19.6%	CN(C)S(=O)(=O)c1ccc2c(c1)/C(=C/c1[nH]c3c(c1CCC(=O)O)C(=O)CCC3)C(=O)N2 [DCB-70121, (Z)-5-(N,N-dimethylsulfamoyl)-3-((3-carboxyethyl-4-oxo-4,5,6,7-tetrahydro-1H-indol-2-yl)methylene)indolin-2-one]
19.1%		8.3%		34.1%	84%	CCOC(=O)CCc1c(/C=C2\C(=O)Nc3cc(F)ccc32)[nH]c2c1C(=O)CCC2 [DCB-70122, (Z)-6-fluoro-3-((3-(3-ethoxy-3-oxopropyl)-4-oxo-4,5,6,7-tetrahydro-1H-indol-2-yl)methylene)indolin-2-one]
8.3%		13.3%		78.1%	90.8%	O=C(O)CCc1c(/C=C2\C(=O)Nc3cc(F)ccc32)[nH]c2c1C(=O)CCC2 [DCB-70123, (Z)-6-fluoro-3-((3-carboxyethyl-4-oxo-4,5,6,7-tetrahydro-1H-indol-2-yl)methylene)indolin-2-one]
-0.8%		1.4%		11.9%	72.5%	CCN(CC)C(=O)CCc1c(/C=C2\C(=O)Nc3ccc(F)cc32)[nH]c2c1C(=O)CCC2 [DCB-70124, (Z)-N,N-diethyl-3-(2-((5-fluoro-2-oxoindolin-3-ylidene)methyl)-4-oxo-4,5,6,7-tetrahydro-1H-indol-3-yl)propanamide]
2.9%		-0.1%		39.7%	83.4%	O=C1Nc2ccc(F)cc2/C1=C/c1[nH]c2c(c1CCC(=O)N1CCOCC1)C(=O)CCC2 [DCB-70125, (Z)-5-fluoro-3-((3-(3-morpholino-3-oxopropyl)-4-oxo-4,5,6,7-tetrahydro-1H-indol-2-yl)methylene)indolin-2-one]
